≈ marks a conversion by molar mass, not a printed value. Where “and” joins values, the source holds several entries; their conditions need not be identical. Equal entries are not always repeated.
Key:
[1] = target: Human immunodeficiency virus type 1 reverse transcriptase (Human immunodeficiency virus 1, UniProt Q72547); assay: Inhibition of HIV1 reverse transcriptase
[2] = tested on: Human immunodeficiency virus 1; assay: Antiviral activity against HIV-1 infected in CEM-SS cells; assay type: functional, organism-based; settings: Human immunodeficiency virus 1, CEM-SS
[3] = tested on: Human alphaherpesvirus 1; assay: Antiviral activity against Herpes simplex virus 1; assay type: functional, organism-based
[4] = Binding affinity to HIV protease assessed as inhibition constant; design: species or system Human immunodeficiency virus
[5] = Inhibition of Hepatitis C virus NS5B polymerase; design: species or system Hepacivirus hominis
[6] = tested on: Human immunodeficiency virus; assay: Antiviral activity against HIV; assay type: functional, organism-based; settings: Human immunodeficiency virus 1
[7] = tested on: Human immunodeficiency virus; assay: Antiviral activity against HIV infected in human H9 cells; assay type: functional, organism-based; settings: Human immunodeficiency virus 1, H9
[8] = target: T1, Human immunodeficiency virus type 1 protease (Human immunodeficiency virus 1, UniProt Q72874); assay: (§1) Inhibition of HIV-1 protease
[9] = Inhibition of HIV1 integrase; design: species or system Human immunodeficiency virus 1
[10] = tested on: Human immunodeficiency virus 1; assay: Antiviral activity against HIV-1 infected in human H9 cells; assay type: functional, organism-based; settings: Human immunodeficiency virus 1, H9
[11] = tested on: Human immunodeficiency virus 1; assay: Antiviral activity against HIV-1 RTMDR1 infected in human MT4 cells; assay type: functional, organism-based; settings: Human immunodeficiency virus 1, RTMDR1, MT4
[12] = tested on: Hepatitis C virus; assay: Antiviral activity against HCV assessed as inhibition of RNA replication; assay type: functional, organism-based, Hepacivirus hominis
[13] = tested on: Hepatitis C virus; assay: Antiviral activity against HCV assessed as inhibition of HCV RNA replication at 5.0 uM relative to control; assay type: functional, Hepacivirus hominis; design: scale not given: the % may be the effect or the level left
[14] = target: T1, Human immunodeficiency virus type 1 protease; assay: Binding affinity to HIV-1 protease assessed as inhibition constant
[15] = target: Human immunodeficiency virus type 1 protease (Human immunodeficiency virus 1) (UniProt Q72874); assay: as §1
[16] = Inhibition of HIV protease; design: species or system Human immunodeficiency virus
[17] = Therapeutic index, ratio of IC50 for cytotoxicity against human H9 cells to EC50 for antiviral activity against HIV-1 infected in H9 cells; assay type: toxicity, cell-based; settings: read-out: Ratio IC50/EC50
[18] = read-out: ED50 (the source's name)

CCCc1cc(=O)oc2c3c(c4c(c12)OC(C)(C)C=C4)O[C@H](C)[C@@H](C)[C@H]3O [(+)-CALANOLIDE B]
IC50 [1]: 15 µM
EC50 [2]: 0.4 µM

COc1ccc(C2OC(COc3cc(=O)oc4ccccc34)=NN2C(C)=O)cc1 (centres undefined)
MIC [3]: 130 µg/mL (≈ 330 µM)

CCC(c1ccccc1)c1c(O)c2c(oc1=O)CCC2 (centres undefined)
Ki [4]: 0.7 µM

COc1cc(O)c2c(c1)oc(=O)c1c3cc(O)c(O)cc3oc21 [WEDELOLACTONE]
IC50 [5]: 36.1 µM

CC(C)(C)OC(=O)NCCNc1cccc(C(c2c(O)c3c(oc2=O)CCCCCC3)C2CC2)c1 (centres undefined)
IC50 [6]: 1 µM
Ki [4]: 0.0006 µM and 0.004 µM

COc1cc2oc(=O)c3c4cc(OC)c(O)cc4oc3c2cc1O
IC50 [5]: 311 µM

CC(C)(O)C(O)COc1c2ccoc2cc2oc(=O)ccc12 (centres undefined)
EC50 ([7]; read-out: EC50): 10 µg/mL (≈ 32.9 µM)

CCCc1cc(=O)oc2c3c(c4c(c12)OC(C)(C)C=C4)O[C@H](C)[C@H](C)[C@@H]3O [CALANOLIDE C]
IC50 [1]: 30 µM

O=c1oc(-c2ccccc2)cc(O)c1Sc1ccccc1
IC50 [8]: 3 µM

O=c1ccc2cc(O)c(O)cc2o1 [ESCULETIN]
EC50 [7, 18]: 2.51 µg/mL (≈ 14.1 µM)

CCCc1cc(=O)oc2c3c(c4c(c12)OC(C)(C)C=C4)O[C@H](C)[C@@H](C)[C@@H]3O [CALANOLIDE A]
IC50 [1]: 20 µM
EC50 [2]: 0.1 µM

CC(C)(O)C(O)COc1c2occc2cc2ccc(=O)oc12 (centres undefined)
EC50 ([7]; read-out: EC50): 0.115 µg/mL (≈ 0.378 µM)

COc1ccc(-c2c3c4cc(OC)c(OS(=O)(=O)O)cc4oc(=O)c3n3ccc4cc(OC)c(OC)cc4c23)cc1O
IC50 [9]: 16 µM

C/C=C(\C)O[C@@H]1c2c(ccc3ccc(=O)oc23)OC(C)(C)[C@@H]1OC(C)=O
EC50 ([10]; read-out: EC50): 4600 nM

O=C(O)COc1ccc(-c2cc(O)c(SCCc3ccccc3)c(=O)o2)cc1
IC50 [8]: 0.16 µM

CCc1cc(=O)c2ccc3c(c2o1)[C@@H](OC(=O)[C@@]12CC[C@](C)(C(=O)O1)C2(C)C)[C@@H](OC(=O)C12CCC(C)(C(=O)O1)C2(C)C)C(C)(C)O3
EC50 [11]: 0.06 µM

O=C(O)CCCCC1(c2ccccc2)CC(O)=C(SCCc2ccccc2)C(=O)O1 (centres undefined)
IC50 [8]: 5 µM

CCC(c1cccc(NC(=O)[C@H](C)NC(=O)OC(C)(C)C)c1)c1c(O)c2ccccc2oc1=O (some centres undefined)
Ki [4]: 0.17 µM

Cc1cc(=O)oc2c3c(ccc12)OC(C)(C)[C@H](OC(=O)C12CCC(C)(C(=O)O1)C2(C)C)[C@@H]3OC(=O)[C@@]12CC[C@](C)(C(=O)O1)C2(C)C
EC50 ([10]; read-out: EC50): 0.00183 nM

O=c1oc2ccc(Br)cc2cc1CSc1nc2cc(F)ccc2[nH]1
EC50 [12]: 3.4 µM

CC(=O)OC[C@H]1O[C@@H](n2c(SCc3cc4cc(Br)ccc4oc3=O)nc3ccccc32)[C@H](OC(C)=O)[C@@H](OC(C)=O)[C@@H]1OC(C)=O
EC50 [12]: 4.1 µM
Activity [13]: 90%

CCC(c1cccc(NS(=O)(=O)c2ccc(C#N)cn2)c1)c1c(O)c2c(oc1=O)CCCC2 (centres undefined)
Ki [14]: 0.05 nM
EC50 [10, 18]: 950 nM

CC(C)c1cccc(C(C)C)c1NC(=O)C(=O)CC(=O)CC(c1ccccc1)c1c(O)c2ccccc2oc1=O (centres undefined)
ID50 [15]: 31 µM

CC(=O)CC(c1ccccc1)c1c(O)c2ccccc2oc1=O (centres undefined) [WARFARIN]
IC50 [16]: 30 µM

O=c1oc2cc(O)c(O)cc2c2oc3cc4c(cc3c12)OCO4
IC50 [5]: 63.8 µM

CSc1ccc(-c2cc3ccccc3oc2=O)cc1
IC50 [6]: 18.2 µM

O=c1oc2cc(O)ccc2c(O)c1C(c1ccc2ccccc2c1)c1c(O)c2ccc(O)cc2oc1=O
IC50 [8]: 4.2 µM

COc1c2ccoc2cc2oc(=O)ccc12 [BERGAPTEN]
EC50 ([7]; read-out: EC50): 0.354 µg/mL (≈ 1.64 µM)

O=c1oc2ccccc2c(O)c1C(c1ccccc1)c1c(O)c2ccccc2oc1=O
IC50 [8]: 43 µM

COc1ccc(/C=N\NC(=O)COc2cc(=O)oc3ccccc23)cc1
MIC [3]: 200 µg/mL (≈ 568 µM)

CC1(C)OC1COc1c2occc2cc2ccc(=O)oc12 (centres undefined)
EC50 ([7]; read-out: EC50): 2.37 µg/mL (≈ 8.28 µM)

CC(C)(C)OC(=O)NC(Cc1c[nH]cn1)C(=O)Nc1cccc(C(c2c(O)c3c(oc2=O)CCCCCC3)C2CC2)c1 (centres undefined)
Ki [4]: 0.003 µM

O=c1oc2ccccc2c(O)c1Sc1c(O)c2ccccc2oc1=O
ID50 [15]: 21 µM

COc1ccc2c(O)c(-c3ccccc3)c(=O)oc2c1
IC50 [6]: 23.8 µM

CCCC(=O)Nc1cccc(C(c2c(O)c3c(oc2=O)CCCCCC3)C2CC2)c1 (centres undefined)
Ki [4]: 0.024 µM

CC1(C)Oc2ccc3ccc(=O)oc3c2[C@@H](OC(=O)[C@@]23CC[C@](C)(C(=O)O2)C3(C)C)[C@H]1OC(=O)C12CCC(C)(C(=O)O1)C2(C)C
selectivity ratio [17]: 137000
EC50 ([10]; read-out: EC50): 0.256 nM

CC(=O)O[C@@H]1C(OCC(C)C)c2c(ccc3ccc(=O)oc23)OC1(C)C (single isomer, unassigned)
selectivity ratio [17]: 30.6
EC50 ([10]; read-out: EC50): 2260 nM

Reference: ChEMBL document CHEMBL5257032, “Therapeutic potential of coumarins as antiviral agents” (Eur J Med Chem, 2016)
